The values that follow come from article PMC4618141, “Use of In Vitro and Predictive In Silico Models to Study the Inhibition of Cytochrome P4503A by Stilbenes” (PLoS ONE, 2015).

The target in the data set is CYP3A4 (Homo sapiens, UniProt P08684). The experiment in a line: inhibition of testosterone metabolism in Caco-2/TC7 cells (HPLC).
Chain of CYP3A4 (P08684 2-503): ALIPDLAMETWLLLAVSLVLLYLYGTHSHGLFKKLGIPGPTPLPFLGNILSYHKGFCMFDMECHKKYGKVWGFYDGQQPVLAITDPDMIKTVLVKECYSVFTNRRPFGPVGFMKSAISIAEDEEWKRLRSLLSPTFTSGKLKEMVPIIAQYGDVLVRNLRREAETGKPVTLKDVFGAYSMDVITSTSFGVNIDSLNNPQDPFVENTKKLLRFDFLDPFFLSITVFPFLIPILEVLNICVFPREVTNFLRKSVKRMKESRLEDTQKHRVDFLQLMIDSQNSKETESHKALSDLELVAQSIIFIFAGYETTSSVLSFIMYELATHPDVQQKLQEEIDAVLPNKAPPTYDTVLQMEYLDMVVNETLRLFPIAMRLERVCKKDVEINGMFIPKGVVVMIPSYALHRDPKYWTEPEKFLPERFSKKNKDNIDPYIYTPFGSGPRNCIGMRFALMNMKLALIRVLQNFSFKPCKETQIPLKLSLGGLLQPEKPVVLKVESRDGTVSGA

As for `Oc1ccc(/C=C/c2cc(O)cc(O)c2)cc1` [Resveratrol, trans-3,4′,5-trihydroxystilbene], the IC50 is below 10 µM.

As a reminder, the IC50 is the concentration at which inhibition is half-maximal. A higher IC50 goes with weaker potency.
